Experimental data taken from patent US11541027B2 (DelMar Pharmaceuticals, Inc., priority 2014, dated 2023).
Entries after “also recorded” stand apart in the source; their conditions may differ.

Tests used:
[1] = system: SkLU1; experiment: Cytotoxicity in NSCLC tumor models; type: cell-based, human; details: SkLU1, p53 mu; N = 3
Excerpt: (§1) The cell lines include cell lines with wild-type p53, cell lines with mutant p53, and cell lines in which p53 has been knocked out (“null”). The properties of these cell lines are described in F. Bunz et al., “Requirement for p53 and p21 to Sustain G2 Arrest After DNA Damage,” Science 282: 1497-1501 (1998), incorporated herein by this reference.

[2] = system: H460; experiment: Cytotoxicity in NSCLC tumor models; type: cell-based, human; details: H460, p53 wt; N = 3; listed as DAG
Excerpt: as §1

[3] = system: H226; experiment: Cytotoxicity in NSCLC tumor models; type: cell-based, human; details: H226, p53 wt; N = 3
Excerpt: as §1

[4] = system: H838; experiment: Cytotoxicity in NSCLC tumor models; type: cell-based, human; details: H838, p53 wt; N = 3
Excerpt: as §1

[5] = system: H1975; experiment: Cytotoxicity in NSCLC tumor models; type: cell-based, human; details: H1975, p53 mu; N = 3
Excerpt: as §1

[6] = system: H1299; experiment: Cytotoxicity in NSCLC tumor models; type: cell-based, human; details: H1299, p53 null; N = 3
Excerpt: as §1

[7] = system: H2122; experiment: Cytotoxicity in NSCLC tumor models; type: cell-based, human; details: H2122, p53 mu; N = 3
Excerpt: as §1

[8] = system: A549; experiment: Cytotoxicity in NSCLC tumor models; type: cell-based, human; details: A549, p53 wt; N = 3
Excerpt: as §1

[9] = system: H157; experiment: Cytotoxicity in NSCLC tumor models; type: cell-based, human; details: H157, p53 mu; N = 3
Excerpt: as §1

[10] = system: A549 (TKI-sensitive) human lung adenocarcinoma xenograft tumors; experiment: A549 NSCLC xenograft tumor model in female Rag2 mice; details: for MTV at Day 68 / Median survival / TCR at Day 68 / TGD / TGI (%): W, F × 3; for MTV at Day 68 / Median survival / TCR at Day 68 / TGD / TGI (%) / number of animals remaining on study on day 70 / day on which a mean tumor volume of 200 mm^3 was observed / day on which a mean tumor volume of 400 mm^3 was reached / doubling time: A549 model; for TCR at Day 68: tumor control ratio; for TGD: tumor growth delay vs untreated control, doubling time 200 to 400 mm^3; for TGI (%): tumor growth inhibition; for day on which a mean tumor volume of 200 mm^3 was observed / day on which a mean tumor volume of 400 mm^3 was reached: days post-inoculation; for doubling time: mean tumor volume 200 to 400 mm^3
Procedure: Rag2 mice bearing subcutaneous human lung adenocarcinoma xenograft tumors of either TKI-resistant (H1975) or TKI-sensitive (A549) origin were treated.
Two human NSCLC cell lines, A549 (TKI-sensitive) and H1975 (TKI-resistant), were used as xenograft tumor models in female Rag2 mice. The mice were 6 to 8 weeks of age and weighed 18-23 grams. 10 mice were used per group.
Cisplatin was used in normal saline at a dose of 5 mg/kg. Administration was intravenous.
Administration was intraperitoneal.
Treatment was initiated at a tumor volume of 100 mm^3 to 150 mm^3.
The cells were started from a frozen vial of lab stock that were frozen down from the ATCC original vial and kept in liquid nitrogen. Cell cultures with a passage number of 3 to 10 and a confluence of 80%-90% were used. […] Cells were subcultured once weekly with a split ratio 1:3 to 1:8 and expanded.
For cell preparation and harvesting for subcutaneous (s.c.) inoculation, the cells were rinsed briefly once with Hanks Balanced Salt Solution without calcium or magnesium. […] The cells were allowed to sit at 37° C. for a few minutes. The cells were observed under an inverted microscope until the cell layer was dispersed, fresh medium was added, 50 μL of cell suspension was taken and mixed with trypan blue (1:1), and the cells were counted and cell viability assessed by using Cellometer Auto T4. The cells were centrifuged at 200×g for 7 minutes and the supernatant was aspirated. The cells were resuspended in growth medium to obtain a concentration of 100×10^6 cells/mL. For inoculation, 5×10^6 cells were used in an injection volume of 50 μL per mouse in 1:1 Matrigel.
On day 0, tumor cells were implanted subcutaneously into mice in a volume of 50 μL in Matrigel using a 28-gauge needle; injection of the tumor cells was in the back of the mice. Mice were randomly assigned to groups based on tumor volume.
For administration, 5 mL of 0.9% sodium chloride for injection, USP (saline) was added to yield a DAG solution with a concentration of 8 mg/mL.
Mice were injected with the required volume to administer the prescribed dose (mg/kg) to the animals based on individual mouse weights using a 28-gauge needle. The injection volume was 200 μL for a 20-g mouse. The mice were briefly (less than 30 seconds) restrained during intravenous injections. Dilation of the vein for intravenous injections was achieved by holding the animals under a heat lamp for a period of between 1-2 minutes.
Mice were individually weighed and injected intraperitoneally according to body weight at the specified injection concentration (see Table 1). The injection volume was based on 200 μL per 20-g mouse. The abdominal surface was wiped down with 70% isopropyl alcohol to clean the injection site.
Tumor growth was monitored by measuring tumor dimensions with calipers beginning on the first day of treatment. Tumor length and width measurements were obtained each Monday, Wednesday, and Friday. Tumor volumes were calculated according to the equation L×W^2/2 with the length (in mm) being defined as the longer axis of the tumor. Animals were weighed at the time of tumor measurement. Tumors were allowed to grow to a maximum of 800 mm^3 before termination.
All animals had blood collected by cardiac puncture at termination for CBC (complete blood count) with differentiation.
In particular, signs of ill-health were based on body weight loss, change in appetite, and behavioral signs such as altered gait, lethargy, and gross manifestations of stress.

[11] = Stability of reconstituted dianhydrogalactitol stock solution; type: physicochemical; details: 8 mg/mL in 0.9% sodium chloride for injection
[12] = group 5, 6 mg/kg i.p., only 3 of 9 scheduled doses

## dianhydrogalactitol
[1]
  IC50: 2.72 µM
[2]
  IC50: 0.49 µM
[3]
  IC50: 6.11 µM
[4]
  IC50: 4.52 µM
[5]
  IC50: 0.9 µM
[6]
  IC50: 2.37 µM
[7]
  IC50: 2.84 µM
[8]
  IC50: 1.75 µM
[9]
  IC50: 4.48 µM
[10]; 1.5 mg/kg i.p. M
  MTV at Day 68: 440 mm^3
  Median survival: 73.5 days
  TCR at Day 68: 0.69
  TGD: 9 days
  TGI (%): 32%
[10]; 3 mg/kg i.p. M
  MTV at Day 68: 303 mm^3
  Median survival: 82 days
  TCR at Day 68: 0.47
  TGD: 26 days
  TGI (%): 55%
[10]; 6 mg/kg i.p., treatment stopped after 3 doses, A549 tumor-bearing Rag2 mice
  body weight / tolerability of the dosage: significant body weight loss; also recorded: significant weight loss and morbidity
[10]; group 3, 1.5 mg/kg i.p. Monday, Wednesday, Friday for 3 weeks
  number of animals remaining on study on day 70: 7/10
[10]; group 3, 1.5 mg/kg i.p.
  day on which a mean tumor volume of 200 mm^3 was observed: 45 days
  day on which a mean tumor volume of 400 mm^3 was reached: 67 days
  doubling time: 22
[10]; group 4, 3 mg/kg i.p. Monday, Wednesday, Friday for 3 weeks
  number of animals remaining on study on day 70: 6/10
[10]; group 4, 3 mg/kg i.p.
  day on which a mean tumor volume of 200 mm^3 was observed: 42 days
  day on which a mean tumor volume of 400 mm^3 was reached: 81 days
  doubling time: 39
[10]; [12]
  number of animals remaining on study on day 70: 8/10
  day on which a mean tumor volume of 200 mm^3 was observed: 54 days
[10]; groups 4 or 5 (3 or 6 mg/kg i.p.), A549 tumor-bearing Rag2 mice
  hemoglobin (g/L), CBC analysis at termination, versus untreated control: Statistical significance (p<0.05)
[11]; 4° C.
  time for which the stock solution was stable: 24 h
[11]; room temperature
  time for which the stock solution was stable: 4 h
